In US9102591B2, “Benzamides” (H. Lundbeck A/S, priority 2012, dated 2015):

target: P2X7 receptor (Homo sapiens (Human), UniProt Q99572); experiment: P2X7 FLIPR assay (BzATP-stimulated calcium fluorescence, antagonist IC50); assay type: cell-based
Protocol: This example illustrates representative assays for use in evaluating the test compounds for antagonist activity. Compounds of the present invention were tested in vitro for their ability to act as antagonists to the P2X7receptor. […]
Cells were plated to cell density of approximately 15,000 cells/well in 384-well assay plates (50 μl/well) with 1.5% low serum media (DMEM, 1.5% FBS, 1% L-glut (2 mM), 10 mM HUES, 1% P/S). Cells were plated 24 hours prior to assay. Cells expressing human, rat or mouse P2X7 receptor were assayed in the following manner.
Fluo-4 NW dye mix (Molecular Probes, Inc., Eugene, Oreg., USA) was prepared in buffer (see manufacturer's instructions). Cell plates were removed from the 37° C. incubator, the media discarded and then 30 μL of dye was added to each well. Plates were placed in the 37° C., non-CO2 incubator for 30 minutes and then room temperature for 30 minutes.
Compound mixtures (A) were added to assay plates containing cells and placed at room temperature for 30 minutes, then BzATP (B) was added. Fluorescence was read using the Tetra FLIPR® (Molecular Devices, Inc., Sunnyvale, Calif., USA) and IC50 values were calculated by standard methods to determine antagonist activity.

Sequence of P2X7 receptor (Q99572 whole entry): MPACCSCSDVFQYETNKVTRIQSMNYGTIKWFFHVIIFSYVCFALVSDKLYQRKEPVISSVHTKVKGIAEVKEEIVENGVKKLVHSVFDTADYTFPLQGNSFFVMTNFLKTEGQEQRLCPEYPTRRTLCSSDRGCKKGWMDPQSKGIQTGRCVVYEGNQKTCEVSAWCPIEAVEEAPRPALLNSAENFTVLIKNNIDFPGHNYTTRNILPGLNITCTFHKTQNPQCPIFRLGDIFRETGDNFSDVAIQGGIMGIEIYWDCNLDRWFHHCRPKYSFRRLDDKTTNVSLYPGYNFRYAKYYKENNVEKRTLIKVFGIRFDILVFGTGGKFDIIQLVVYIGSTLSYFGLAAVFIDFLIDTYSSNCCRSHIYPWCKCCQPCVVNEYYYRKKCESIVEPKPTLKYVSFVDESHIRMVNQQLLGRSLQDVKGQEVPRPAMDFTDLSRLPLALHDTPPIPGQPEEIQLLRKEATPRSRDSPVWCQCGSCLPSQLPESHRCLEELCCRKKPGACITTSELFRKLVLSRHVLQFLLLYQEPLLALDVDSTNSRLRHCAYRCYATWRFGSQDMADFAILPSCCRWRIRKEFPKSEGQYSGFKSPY

| SMILES | IC50 [nM] |
| --- | --- |
| O=C(NCC(c1ccc(F)cc1)c1cnc(C(F)(F)F)nc1)c1c(F)cccc1Cl (single isomer, unassigned; (+)) [(+)2-chloro-6-fluoro-N-[2-(4-fluorophenyl)-2-[2-(trifluorome] [(+)2-chloro-6-fluoro-N-[2-(4-fluorophenyl)-2-[2-(trifluoromethyl)pyrimidin-5-yl]ethyl]benzamide] | 6.7 |
| O=C(NCC(c1cnc(C(F)(F)F)nc1)C1CCOCC1)c1c(F)cccc1Cl (single isomer, unassigned; (+)) [(+)2-chloro-6-fluoro-N-[2-tetrahydropyran-4-yl-2-[2-(trifluo] [(+)2-chloro-6-fluoro-N-[2-tetrahydropyran-4-yl-2-[2-(trifluoromethyl)pyrimidin-5-yl]ethyl]benzamide] | 56 |
| Cc1ncc(C(CNC(=O)c2ccccc2Cl)C2CCOCC2)cn1 (single isomer, unassigned; (+)) [(+)2-chloro-N-[2-(2-methylpyrimidin-5-yl)-2-tetrahydropyran-] [(+)2-chloro-N-[2-(2-methylpyrimidin-5-yl)-2-tetrahydropyran-4-yl-ethyl]benzamide] | 970 |
| O=C(NCC(c1cnc(C(F)(F)F)nc1)C1CCC(F)(F)CC1)c1c(F)cccc1Cl (single isomer, unassigned; (+)) [(+)2-chloro-N-[2-(4,4-difluorocyclohexyl)-2-[2-(trfluorometh] [(+)2-chloro-N-[2-(4,4-difluorocyclohexyl)-2-[2-(trfluoromethyl)pyrimidin-5-yl]ethyl]-6-fluoro-benzamide] | 75 |
| O=C(NCC(c1cnc(C(F)(F)F)nc1)C1CCC(F)(F)CC1)c1cccc(F)c1Cl (single isomer, unassigned; (+)) [(+)2-chloro-N-[2-(4,4-difluorocyclohexyl)-2-[2-(trifluoromet] [(+)2-chloro-N-[2-(4,4-difluorocyclohexyl)-2-[2-(trifluoromethyl)pyrimidin-5-yl]ethyl]-3-fluoro-benzamide] | 45 |
| O=C(NCC(c1cnc(C(F)(F)F)nc1)C1CCC(F)(F)CC1)c1ccccc1Cl (single isomer, unassigned; (+)) [(+)2-chloro-N-[2-(4,4-difluorocyclohexyl)-2-[2-(trifluoromet] [(+)2-chloro-N-[2-(4,4-difluorocyclohexyl)-2-[2-(trifluoromethyl)pyrimidin-5-yl]ethyl]benzamide] | 32 |
| O=C(NCC(c1ccc(F)cc1)c1cnc(C(F)(F)F)nc1)c1ccccc1Cl (single isomer, unassigned; (+)) [(+)2-chloro-N-[2-(4-fluorophenyl)-2-[2-(trifluoromethyl)pyri] [(+)2-chloro-N-[2-(4-fluorophenyl)-2-[2-(trifluoromethyl)pyrimidin-5-yl]ethyl]benzamide] | 4.4 |
| O=C(NCC(c1ccc(F)cc1)c1ccc(C(F)(F)F)nc1)c1ccccc1Cl (single isomer, unassigned; (+)) [(+)2-chloro-N-[2-(4-fluorophenyl)-2-[6-(trifluoromethyl)-3-p] [(+)2-chloro-N-[2-(4-fluorophenyl)-2-[6-(trifluoromethyl)-3-pyridyl]ethyl]benzamide] | 2.2 |
| O=C(NCC(CC1CC1)c1cnc(C(F)(F)F)nc1)c1cccc(F)c1Cl (single isomer, unassigned; (+)) [(+)2-chloro-N-[3-cyclopropyl-2-[2-(trifluoromethyl)pyrimidin] [(+)2-chloro-N-[3-cyclopropyl-2-[2-(trifluoromethyl)pyrimidin-5-yl]propyl]-3-fluoro-benzamide] | 50 |
| COc1cccc(C(=O)NCC(CC2CC2)c2cnc(C(F)(F)F)nc2)c1Cl (single isomer, unassigned; (+)) [(+)2-chloro-N-[3-cyclopropyl-2-[2-(trifluoromethyl)pyrimidin] [(+)2-chloro-N-[3-cyclopropyl-2-[2-(trifluoromethyl)pyrimidin-5-yl]propyl]-3-methoxy-benzamide] | 14 |
| O=C(NCC(CC1CC1)c1cnc(C(F)(F)F)nc1)c1c(F)cccc1Cl (single isomer, unassigned; (+)) [(+)2-chloro-N-[3-cyclopropyl-2-[2-(trifluoromethyl)pyrimidin] [(+)2-chloro-N-[3-cyclopropyl-2-[2-(trifluoromethyl)pyrimidin-5-yl]propyl]-6-fluoro-benzamide] | 41 |
| O=C(NCC(CC1CC1)c1ccc(C(F)F)nc1)c1ccccc1Cl (single isomer, unassigned; (+)) [(+)2-chloro-N-[3-cyclopropyl-2-[6-(difluoromethyl)-3-pyridyl] [(+)2-chloro-N-[3-cyclopropyl-2-[6-(difluoromethyl)-3-pyridyl]propyl]benzamide] | 640 |
| COc1cccc(C(=O)NCC(CC2CC2)c2ccc(C(F)F)nc2)c1Cl (single isomer, unassigned; (+)) [(+)2-chloro-N-[3-cyclopropyl-2-[6-(difluoromethyl)-3-pyridyl]propyl]-3-methoxy-benzamide] | 4.4 |
| O=C(NCC(CC1CC1)c1ccc(C(F)(F)F)nc1)c1cccc(F)c1Cl (single isomer, unassigned; (+)) [(+)2-chloro-N-[3-cyclopropyl-2-[6-(trifluoromethyl)-3-pyridy] [(+)2-chloro-N-[3-cyclopropyl-2-[6-(trifluoromethyl)-3-pyridyl]propyl]-3-fluoro-benzamide] | 11 |

More lines, now with the values ahead:

| IC50 [nM] | SMILES |
| --- | --- |
| 7.2 | O=C(NCC(CC1(C(F)(F)F)CC1)c1ccc(C(F)(F)F)nc1)c1cccc(F)c1Cl (single isomer, unassigned; (+)) [(+)2-chloro-3-fluoro-N-[3-[1-(trifluoromethyl)cyclopropyl]-2] [(+)2-chloro-3-fluoro-N-[3-[1-(trifluoromethyl)cyclopropyl]-2-[6-(trifluoromethyl)-3-pyridyl]propyl]benzamide] |
| 15 | O=C(NCC(c1ccc(F)cc1)c1ccc(C(F)(F)F)nc1)c1c(F)cccc1Cl (single isomer, unassigned; (+)) [(+)2-chloro-6-fluoro-N-[2-(4-fluorophenyl)-2-[6-(trifluorome] [(+)2-chloro-6-fluoro-N-[2-(4-fluorophenyl)-2-[6-(trifluoromethyl)-3-pyridyl]ethyl]benzamide] |
| 130 | Cc1ncc(C(CNC(=O)c2ccccc2Cl)CC2(C(F)(F)F)CC2)cn1 (single isomer, unassigned; (+)) [(+)2-chloro-N-[2-(2-methylpyrimidin-5-yl)-3-[1-(trifluoromet] [(+)2-chloro-N-[2-(2-methylpyrimidin-5-yl)-3-[1-(trifluoromethyl)cyclopropyl]propyl]benzamide] |
| 51 | O=C(NCC(c1cnc(C(F)(F)F)nc1)C1CCOCC1)c1ccccc1Cl (single isomer, unassigned; (+)) [(+)2-chloro-N-[2-tetrahydropyran-4-yl-2-[2-(trifluoromethyl)] [(+)2-chloro-N-[2-tetrahydropyran-4-yl-2-[2-(trifluoromethyl)pyrimidin-5-yl]ethyl]benzamide] |
| 2.4 | O=C(NCC(CC1(C(F)(F)F)CC1)c1cnc(C(F)(F)F)nc1)c1ccccc1Cl (single isomer, unassigned; (+)) [(+)2-chloro-N-[3-[1-(trifluoromethyl)cyclopropyl]-2-[2-(trifluoromethyl)pyrimidin-5-yl]propyl]benzamide] |
| 0.09 | O=C(NCC(CC1(C(F)(F)F)CC1)c1ccc(C(F)(F)F)nc1)c1ccccc1Cl (single isomer, unassigned; (+)) [(+)2-chloro-N-[3-[1-(trifluoromethyl)cyclopropyl]-2-[6-(trif] [(+)2-chloro-N-[3-[1-(trifluoromethyl)cyclopropyl]-2-[6-(trifluoromethyl)-3-pyridyl]propyl]benzamide] |
| 38 | O=C(NCC(CC1CC1)c1cnc(C(F)(F)F)nc1)c1ccccc1Cl (single isomer, unassigned; (+)) [(+)2-chloro-N-[3-cyclopropyl-2-[2-(trifluoromethyl)pyrimidin] [(+)2-chloro-N-[3-cyclopropyl-2-[2-(trifluoromethyl)pyrimidin-5-yl]propyl]benzamide] |
| 800 | O=C(NCC(CC1CC1)c1ccc(C(F)F)nc1)c1cccc(F)c1Cl (single isomer, unassigned; (+)) [(+)2-chloro-N-[3-cyclopropyl-2-[6-(difluoromethyl)-3-pyridyl] [(+)2-chloro-N-[3-cyclopropyl-2-[6-(difluoromethyl)-3-pyridyl]propyl]-3-fluoro-benzamide] |
| 1100 | O=C(NCC(CC1CC1)c1ccc(C(F)(F)F)nc1)c1cccc(C(F)(F)F)c1Cl (single isomer, unassigned; (+)) [(+)2-chloro-N-[3-cyclopropyl-2-[6-(trifluoromethyl)-3-pyridy] [(+)2-chloro-N-[3-cyclopropyl-2-[6-(trifluoromethyl)-3-pyridyl]propyl]-3-(trifluoromethyl)benzamide] |
| 12 | COc1cccc(C(=O)NCC(CC2CC2)c2ccc(C(F)(F)F)nc2)c1Cl (single isomer, unassigned; (+)) [(+)2-chloro-N-[3-cyclopropyl-2-[6-(trifluoromethyl)-3-pyridy] [(+)2-chloro-N-[3-cyclopropyl-2-[6-(trifluoromethyl)-3-pyridyl]propyl]-3-methoxy-benzamide] |
| 560 | CS(=O)(=O)c1ccc(Cl)c(C(=O)NCC(CC2CC2)c2ccc(C(F)(F)F)nc2)c1 (single isomer, unassigned; (+)) [(+)2-chloro-N-[3-cyclopropyl-2-[6-(trifluoromethyl)-3-pyridy] [(+)2-chloro-N-[3-cyclopropyl-2-[6-(trifluoromethyl)-3-pyridyl]propyl]-5-methylsulfonyl-benzamide] |
